Experimental data as given in ChEMBL document CHEMBL1201862, “PubChem BioAssay data set” (2004).
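Values below derive from 48-hour exposures of cells grown in 96-well plates, with endpoints linearly interpolated between the two concentrations bracketing the appropriate inhibition level. The concentration for 50% growth inhibition is given as GI50.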 Calls of active or inactive are those of the source. No stated cut-off is given here; in the data, active = GI50 up to about 1.1 µM and inactive = higher.

Columns and labels:
Assay in all cases: growth of human tumour cells (NCI), 48 h
RXF 393 = test system: RXF 393
COLO 205 = test system: COLO 205
SNB-75 = test system: SNB-75
NCI/ADR-RES = test system: NCI/ADR-RES
Hs-578T = test system: Hs-578T
HCT-15 = test system: HCT-15
OVCAR-5 = test system: OVCAR-5
A549 = test system: A549
TK-10 = test system: TK-10
UACC-257 = test system: UACC-257
T47D = test system: T47D
A498 = test system: A498
LOX IMVI = test system: LOX IMVI
SF-268 = test system: SF-268
HCC 2998 = test system: HCC 2998
U-251 = test system: U-251
Malme-3M = test system: Malme-3M
OVCAR-3 = test system: OVCAR-3
HT-29 = test system: HT-29
SR = test system: SR

## Cc1cccc2[nH]c3c(c(O)cc4[nH]c5cccc(C)c5c(=O)c43)c(=O)c12
RXF 393
  GI50: 7 µM (inactive)
COLO 205
  GI50: 3.84 µM (inactive)
SNB-75
  GI50: > 10 µM (inactive)
NCI/ADR-RES
  GI50: > 10 µM (inactive)
Hs-578T
  GI50: 7.19 µM (inactive)
HCT-15
  GI50: > 10 µM
OVCAR-5
  GI50: > 10 µM (inactive)
A549
  GI50: > 10 µM (inactive)
TK-10
  GI50: 5.08 µM (inactive)
UACC-257
  GI50: 4.55 µM (inactive)
T47D
  GI50: 8.83 µM (inactive)
A498
  GI50: > 10 µM (inactive)
LOX IMVI
  GI50: 3.65 µM (inactive)
SF-268
  GI50: > 10 µM (inactive)
HCC 2998
  GI50: > 10 µM (inactive)
U-251
  GI50: 3.3 µM (inactive)
Malme-3M
  GI50: 6.95 µM (inactive)
OVCAR-3
  GI50: 6 µM (inactive)
HT-29
  GI50: 3.85 µM (inactive)

## c1cc(CSP234N5CCN2CCN3CCN4CC5)cc(CSP234N5CCN2CCN3CCN4CC5)c1
COLO 205
  GI50: 23 µM (inactive)
SNB-75
  GI50: 20.1 µM (inactive)
NCI/ADR-RES
  GI50: 57.4 µM (inactive)
Hs-578T
  GI50: 21.9 µM (inactive)
HCT-15
  GI50: 22.3 µM
OVCAR-5
  GI50: 86.7 µM (inactive)
A549
  GI50: 40.1 µM (inactive)
TK-10
  GI50: 26.3 µM (inactive)
UACC-257
  GI50: 17 µM (inactive)
T47D
  GI50: > 100 µM (inactive)
SR
  GI50: 4.91 µM (inactive)
LOX IMVI
  GI50: 16.1 µM (inactive)
SF-268
  GI50: 29.4 µM (inactive)
HCC 2998
  GI50: 19.3 µM (inactive)
U-251
  GI50: 21.9 µM (inactive)
OVCAR-3
  GI50: 32.3 µM (inactive)
HT-29
  GI50: 19.1 µM (inactive)

## O=C(c1ccccc1)N1CCN(C(=S)NC2CCCCC2)C1=S
COLO 205
  GI50: 18.5 µM (inactive)
SNB-75
  GI50: 11.1 µM (inactive)
NCI/ADR-RES
  GI50: 17.7 µM (inactive)
Hs-578T
  GI50: 19 µM (inactive)
HCT-15
  GI50: 15.8 µM
OVCAR-5
  GI50: 21.7 µM (inactive)
A549
  GI50: 13.4 µM (inactive)
TK-10
  GI50: 25.8 µM (inactive)
UACC-257
  GI50: 18.7 µM (inactive)
T47D
  GI50: 15.8 µM (inactive)
A498
  GI50: 19 µM (inactive)
SR
  GI50: 28.5 µM (inactive)
LOX IMVI
  GI50: 16 µM (inactive)
SF-268
  GI50: 16.8 µM (inactive)
HCC 2998
  GI50: 16.4 µM (inactive)
U-251
  GI50: 9.89 µM (inactive)
Malme-3M
  GI50: 15.5 µM (inactive)
OVCAR-3
  GI50: 15.6 µM (inactive)
HT-29
  GI50: 20.2 µM (inactive)

## CCOC(=O)Nn1c(C)nnc1CC#N
RXF 393
  GI50: > 100 µM (inactive)
SNB-75
  GI50: > 100 µM (inactive)
NCI/ADR-RES
  GI50: > 100 µM (inactive)
Hs-578T
  GI50: > 100 µM (inactive)
HCT-15
  GI50: > 100 µM
OVCAR-5
  GI50: > 100 µM (inactive)
A549
  GI50: > 100 µM (inactive)
TK-10
  GI50: > 100 µM (inactive)
UACC-257
  GI50: > 100 µM (inactive)
T47D
  GI50: > 100 µM (inactive)
SR
  GI50: > 100 µM (inactive)
LOX IMVI
  GI50: > 100 µM (inactive)
SF-268
  GI50: > 100 µM (inactive)
HCC 2998
  GI50: > 100 µM (inactive)
U-251
  GI50: > 100 µM (inactive)
Malme-3M
  GI50: > 100 µM (inactive)
OVCAR-3
  GI50: > 100 µM (inactive)
HT-29
  GI50: > 100 µM (inactive)

## CN(C)CC/C=C1\c2ccccc2Sc2ccc(Cl)cc21
RXF 393
  GI50: 12.5 µM (inactive)
COLO 205
  GI50: 14.2 µM (inactive)
SNB-75
  GI50: 12.3 µM (inactive)
NCI/ADR-RES
  GI50: 13.8 µM (inactive)
Hs-578T
  GI50: 14.4 µM (inactive)
HCT-15
  GI50: 15.4 µM
OVCAR-5
  GI50: 13.9 µM (inactive)
A549
  GI50: 14.6 µM (inactive)
TK-10
  GI50: 14.5 µM (inactive)
UACC-257
  GI50: 6.87 µM (inactive)
T47D
  GI50: 16.3 µM (inactive)
A498
  GI50: 14.3 µM (inactive)
LOX IMVI
  GI50: 13.8 µM (inactive)
SF-268
  GI50: 14.1 µM (inactive)
HCC 2998
  GI50: 2.22 µM (inactive)
U-251
  GI50: 12.7 µM (inactive)
Malme-3M
  GI50: 12.8 µM (inactive)
OVCAR-3
  GI50: 13.4 µM (inactive)
HT-29
  GI50: 4.19 µM (inactive)

## c1ccc(C2C3=C(CCCC3)Nc3nnnn32)cc1 (stereo not drawn)
RXF 393
  GI50: 0.226 µM (active)
COLO 205
  GI50: > 100 µM (inactive)
NCI/ADR-RES
  GI50: 98.9 µM (inactive)
Hs-578T
  GI50: 64 µM (inactive)
HCT-15
  GI50: > 100 µM
OVCAR-5
  GI50: > 100 µM (inactive)
A549
  GI50: 64 µM (inactive)
UACC-257
  GI50: > 100 µM (inactive)
T47D
  GI50: 25.4 µM (inactive)
A498
  GI50: 19.2 µM (inactive)
SR
  GI50: > 100 µM (inactive)
LOX IMVI
  GI50: > 100 µM (inactive)
SF-268
  GI50: 12.5 µM (inactive)
U-251
  GI50: > 100 µM (inactive)
OVCAR-3
  GI50: 37.8 µM (inactive)

## CCOC(=O)C1(Cc2ccc3c(c2)CCC3)Cc2cc3c(cc2C1=O)CCC3 (stereo not drawn)
COLO 205
  GI50: 41.7 µM (inactive)
SNB-75
  GI50: 53.7 µM (inactive)
NCI/ADR-RES
  GI50: 36 µM (inactive)
Hs-578T
  GI50: > 100 µM (inactive)
HCT-15
  GI50: 58.6 µM
OVCAR-5
  GI50: > 100 µM (inactive)
A549
  GI50: 44 µM (inactive)
TK-10
  GI50: > 100 µM (inactive)
UACC-257
  GI50: 31.3 µM (inactive)
T47D
  GI50: 14.2 µM (inactive)
A498
  GI50: > 42.7 µM (inactive)
SR
  GI50: 44.3 µM (inactive)
LOX IMVI
  GI50: > 71.6 µM (inactive)
SF-268
  GI50: 98.4 µM (inactive)
HCC 2998
  GI50: 62.5 µM (inactive)
U-251
  GI50: > 78 µM (inactive)
Malme-3M
  GI50: > 61.2 µM (inactive)
OVCAR-3
  GI50: > 100 µM (inactive)
HT-29
  GI50: 31.6 µM (inactive)

## O=C(CSc1nc2ccc(I)cc2c(=O)n1Cc1ccccc1)Nc1ccccc1
RXF 393
  GI50: 10 µM (inactive)
COLO 205
  GI50: > 100 µM (inactive)
SNB-75
  GI50: 2.94 µM (inactive)
NCI/ADR-RES
  GI50: 13.8 µM (inactive)
Hs-578T
  GI50: 3.65 µM (inactive)
HCT-15
  GI50: 41.5 µM
OVCAR-5
  GI50: 30.6 µM (inactive)
A549
  GI50: 26.6 µM (inactive)
T47D
  GI50: 21.2 µM (inactive)
A498
  GI50: 15.6 µM (inactive)
SR
  GI50: 11.2 µM (inactive)
LOX IMVI
  GI50: 50.7 µM (inactive)
SF-268
  GI50: 8.77 µM (inactive)
U-251
  GI50: 14.3 µM (inactive)
Malme-3M
  GI50: 6.15 µM (inactive)
OVCAR-3
  GI50: 10.8 µM (inactive)
HT-29
  GI50: > 100 µM (inactive)
